Consider one compound from US20240216369A1, “THE USE OF A SPLICING MODULATOR FOR A TREATMENT SLOWING PROGRESSION OF HUNTINGTON'S DISEASE” (Novartis AG, priority 2019, published 2024).

One data set has as its system total HTT transcript. Nature of the data set: Repeat oral dosing in BacHD mice: total HTT transcript in blood. The following applies: 12 or 24 mg/kg oral, thrice weekly for three weeks; listed as branaplam. It counts as in vivo. On the procedure:
For the repeat dosing study, twenty-four BacHD mice (FVB/N-Tg(HTT*97Q)IXwy/J transgenic mice—Jackson Laboratories) were used for the experiment. Animal protocols were approved by the Children's Hospital of Philadelphia Institutional Animal Care and use Committee. Mice were housed in a temperature-controlled environment on a 12-h light/dark cycle. Food and water were provided ad libitum.
For the repeat dosing study, branaplam or vehicle was administered by oral gavage 3 times a week for 3 consecutive weeks. Mice were divided in 4 groups (n=6 mice/group) and treated with branaplam (12 mg/kg—1 group, or 24 mg/kg—2 groups), or vehicle (1 groups) as control. […] The amount of branaplam or vehicle administrated to each mouse was based on the weight recorded the day of dosing. […]
RNA from blood was extracted using PAXgene blood RNA kit (Qiagen) according to manufacturer protocol. The RNA was quantified by Nanodrop 2000 (Thermo Scientific). cDNAs were synthesized from 140-400 ng RNA using Maxima First strand cDNA synthesis kit using a mix of oligo dT and random hexamers (Thermo Scientific) in 20 uL reaction at 25° C. for 10 min, 50° C. for 15 min then 85° C. for 5 min. Quantitative PCR was performed using Taqman Fast Advanced master mix (Thermo Scientific) in 20 uL with 4 uL of cDNA reaction and primers specific for each genes. […]

The nature of another data set: Adult ACAT/PBPK model. The settings on record: pediatric value entered. The arrangement: species or system human. On the procedure: To scale up the branaplam pediatric ACAT/PBPK model to an adult ACAT/PBPK model, adult CL projected from nonclinical species was applied to replace the pediatric CL, and the body weight of 70 kg was used. Dose volume was set 250 mL. The distribution parameters estimated for the pediatric patients were entered to the adult PK model. […] Model predictions of branaplam exposures after single oral administration of branaplam to adults are depicted in Table 5.

Another data set deals with tHTT. Nature of the data set: Mutant and total HTT multiplex HTRF assay in Q48 HTT human embryonic stem cell line: tHTT. It counts as cell-based. The following applies: Q48 HTT hESC, 48 hours. Summed up:
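Q48 HTT hESCs from HD donors were treated with compound for 48 h at 37 °C after 24 h adherence, then lysed. Lysates were read by multiplex HTRF with N-terminal donor, polyQ (MW1) and post-polyQ (MAB2166) antibodies for 4-6 h at RT. Donor/acceptor ratios give relative mHTT and tHTT; pIC50 reported.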
For orientation: Time-resolved FRET reads energy transfer from a long-lived donor to a nearby acceptor.

Data set [1] in a line: Mouse population PK model (plasma). It counts as in vivo. The following applies: popPK parameters (plasma). On the procedure:
For the establishment of the PK/PD relationship and the development of a mouse PK/PD model, the PK parameters in mouse plasma were estimated considering PK data from studies with male C57BL/6 mice (10 mg/kg, single dose), rasH2 mice (1, 3, 4 and 10 mg/kg, repeated daily doses), and BacHD mice (10 and 50 mg/kg, single dose; 12 and 24 mg/kg, repeated, three times a week doses). […] The population PK model was described and executed by Monolix software (Version 2018R1, Lixoft).

Entries after “also recorded” stand apart in the source; their conditions may differ.

`CC1(C)CC(Oc2ccc(-c3ccc(-c4cn[nH]c4)cc3O)nn2)CC(C)(C)N1` [Compound 18, 5-(1H-pyrazol-4-yl)-2-(6-((2,2,6,6-tetramethylpiperidin-4-yl)oxy)pyridazin-3-yl)phenol]: the “total HTT transcript in blood” value with total HTT transcript is given as “robust lowering; also recorded: lowers”. Besides, in the data set “Adult ACAT/PBPK model”, the Vc is given as 3.62 (Optimized value using GastroPlus ™ based on the 1/h, the k12 is reported as 1.41 (Optimized value using GastroPlus ™ based on the 1/h and the k21 is 0.144 (Optimized value using GastroPlus ™ based on the 1/h. Moreover, the “tHTT pIC50” value in the data set with tHTT came out at 7.371. The compound also gave a CL/F in data set [1] (C57BL/6, rasH2, BacHD (pooled), other: extra-vascular administration) of 55.8 mL/min/kg. In addition, in data set [1], the Q/F stood at 0.504 L/h/kg, the V1 was determined as 28.2 L/kg, the V2 is given as 32.5 L/kg and the ka stood at 0.429 h⁻¹. In data set [1] (pooled C57BL/6, rasH2 and BacHD data), the Tlag came to 0.346 h.

In general, CL/F refers to the apparent clearance, not corrected for the fraction that reaches the circulation.
